# Measurements as given in PMC6297231 (Nature Communications, 2018).
# Read-outs that look alike come from different tables or passages of the source.
# How the values were obtained:
# MOLP-8 cells = test: Kinetics of apoptosis and cell death markers; assay type: cell-based
# Experimental: Data presented in Fig. 4b was calculated as follows:4 TMRE:(TMREnegativesample-TMREnegativeDMSO)∕(TMREnegative500nMAZD5991@24h-TMREnegativeDMSO)×100 5 Annexin V : (Annexin V positive sample) - Annexin positive DMSO∕(Annexin positive 500nM AZD5991@24h) - Annexin positive DMSO × 100 6 7AAD : (7AAD positive sample) - 7AAD positive 500nM AZD5991@0.5h∕(7AAD positive 500nM AZD5991@16h) - 7AAD positive 500nM AZD5991@0.5h × 100
# MM1R = test: Cell viability assay; assay type: cell-based; conditions: MM.1R, 24 h, read-out: AZD5991 24h GI50
# Experimental: (§1) Cells were plated at 3000 cells/well in 384-well white plates in corresponding cell growth media. […] Caspase-3/7 activation was subsequently determined using a Caspase-Glo 3/7 Reagent (Promega) and viability was assayed using the CellTiter-Glo Reagent (Promega) as described in manufacturer’s instructions. Dose–response curves for caspase-3/7 activation and viability were plotted and analyzed (including EC50 and GI50 determination) using GraphPad Prism.
# AMO1 = test: Cell viability assay; assay type: cell-based; conditions: Homo sapiens, 24 h; AMO1 (MM); read-out: AZD5991 24h GI50
# Experimental: as §1
# KMS34 = test: Cell viability assay; assay type: cell-based; conditions: KMS-34, 24 h; KMS34 (MM); read-out: AZD5991 24h GI50
# Experimental: as §1
# U266B1 = test: Cell viability assay; assay type: cell-based; conditions: 24 h; U266B1 (MM); read-out: AZD5991 24h GI50
# Experimental: as §1
# MUTZ3 = test: Cell viability assay; assay type: cell-based; conditions: 24 h; MUTZ3 (AML); read-out: AZD5991 24h GI50
# Experimental: as §1
# ME1 = test: Cell viability assay; assay type: cell-based; conditions: ME-1, 24 h; ME1 (AML); read-out: AZD5991 24h GI50
# Experimental: as §1
# NB4 = test: Cell viability assay; assay type: cell-based; conditions: Homo sapiens, NB-4, 24 h; NB4 (AML); read-out: AZD5991 24h GI50
# Experimental: as §1
# Z-138 = test: Cell viability assay; assay type: cell-based; conditions: Homo sapiens, 24 h; Z-138 (NHL); read-out: AZD5991 24h GI50
# Experimental: as §1
# Calu1 = test: Cell viability assay; assay type: cell-based; conditions: Homo sapiens, Calu-1, 24 h; Calu1 (Lung); read-out: AZD5991 24h GI50
# Experimental: as §1
# H1703 = test: Cell viability assay; assay type: cell-based; conditions: Homo sapiens, NCI-H1703, 24 h; H1703 (Lung); read-out: AZD5991 24h GI50
# Experimental: as §1
# H2110 = test: Cell viability assay; assay type: cell-based; conditions: NCI-H2110, 24 h; H2110 (Lung); read-out: AZD5991 24h GI50
# Experimental: as §1
# H358 = test: Cell viability assay; assay type: cell-based; conditions: Homo sapiens, NCI-H358, 24 h; H358 (Lung); read-out: AZD5991 24h GI50
# Experimental: as §1
# SBC5 = test: Cell viability assay; assay type: cell-based; conditions: Homo sapiens, SBC-5, 24 h; SBC5 (Lung); read-out: AZD5991 24h GI50
# Experimental: as §1
# BT549 = test: Cell viability assay; assay type: cell-based; conditions: Homo sapiens, BT-549, 24 h; BT549 (Breast); read-out: AZD5991 24h GI50
# Experimental: as §1
# A2058 = test: Cell viability assay; assay type: cell-based; conditions: Homo sapiens, 24 h; A2058 (Skin); read-out: AZD5991 24h GI50
# Experimental: as §1
# MALME3M = test: Cell viability assay; assay type: cell-based; conditions: Homo sapiens, Malme-3M, 24 h; MALME3M (Skin); read-out: AZD5991 24h GI50
# Experimental: as §1
# LnCAP = test: Cell viability assay; assay type: cell-based; conditions: Homo sapiens, 24 h; LnCAP (Urology); read-out: AZD5991 24h GI50
# Experimental: as §1
# Colo205 = test: Cell viability assay; assay type: cell-based; conditions: Homo sapiens, COLO 205, 24 h; Colo205 (GI); read-out: AZD5991 24h GI50
# Experimental: as §1
# SKOV3 = test: Cell viability assay; assay type: cell-based; conditions: Homo sapiens, SK-OV-3, 24 h; SKOV3 (Others); read-out: AZD5991 24h GI50
# Experimental: as §1
# MOLP8 = test: Caspase-3/7 activation assay; assay type: cell-based; conditions: Homo sapiens
# Experimental: as §1
# OCIAML5 = test: Caspase-3/7 activation assay; assay type: cell-based; conditions: Homo sapiens, OCI-AML-5, 6 h
# Experimental: as §1
# [1] = test system: Eμ-Myc lymphoma cells stably expressing human Bcl-xL; test: Apoptosis induction in Eμ-Myc lymphoma cells; conditions: overexpression of Bcl-xL, 24 h
# Source text: (§2) The retroviral plasmids to express human Bcl-2 family members in murine Eμ-Myc lymphoma cells are MSCV-hMCL-1-GFP, MSCV-hBCL-2-GFP, MSCV-hBCL-XL-GFP, MSCV-hBFL-1/A1-GFP, and MSCV-hBCL-w-GFP. To produce viruses, constructs of interest were co-transfected into HEK293T cells with the plasmid encoding the packaging viruses (p-CL-AMPHO provided by Phillip Darcy from Peter MacCallum Cancer Center, Melbourne, Australia) using standard calcium phosphate transient transfection technique. The retroviruses were harvested, filtered and used to infect target cells following standard procedures.
# (§3) Samples were then centrifuged, washed twice with PBS and analyzed by flow cytometry in a BD LSRFortessa. FACSDiva software was used for data collection and FlowJo software for data analysis.
# [2] = test system: Eμ-Myc lymphoma cells stably expressing human Bcl-w; test: Apoptosis induction in Eμ-Myc lymphoma cells; conditions: overexpression of Bcl-w, 24 h
# Source text: as §2, §3
# [3] = test system: NCI-H23 cells with enhanced expression of Bcl-xL; test: Cell death in NCI-H23 with doxycycline-inducible Bcl-xL
# Source text: The lentiviral plasmid pTRIPZ-FLAG-BCL-XL was used for generation of NCI-H23 cells stably expressing doxycyline-inducible Bcl-xL. To produce viruses, the construct of interest was co-transfected into HEK293T cells with a plasmid encoding the packaging viruses (pPACKH1 Lentivector Packaging Kit, cat#LV500A1 SystemBioscience) using Lipofectamine transfection reagent (ThermoFisher Scientific). The lentiviruses were harvested, filtered, and used to infect target cells following standard procedures. Transduced cells were then subject to puromycin selection for 3 weeks before evaluation in apoptosis and cell proliferation assays.
# (b) NCI-H23 cells stably expressing doxycycline-inducible Bcl-xL were treated with
# determined using CellTiter Glo and GraphPad Prism for data analysis. Data shown is the average of 2 experiments.
compound,measurement,setting,value
"Cc1c2c(nn1C)CSCc1cc(n(C)n1)CSc1cc(c3ccccc3c1)OCCCc1c(C(=O)O)n(C)c3c-2c(Cl)ccc13 (atropisomer, axis not shown; (Ra)) [(Ra)-7]",time to loss of ATP and disruption of the cell membrane,MOLP-8 cells,less than 24 h
same,"time to maximum increase in MOMP, caspase-3/7 activation and phosphatidyl-serine exposure","MOLP-8 cells; MOLP-8 cells, 500 nM",less than 2 h
same,GI50,MM1R,87 nM
same,GI50,AMO1,129 nM
same,GI50,KMS34,503 nM
same,GI50,U266B1,> 30000 nM
same,GI50,MUTZ3,4 nM
same,GI50,ME1,220 nM
same,GI50,NB4,292 nM
same,GI50,Z-138,290 nM
same,GI50,Calu1,> 30000 nM
same,GI50,H1703,346 nM
same,GI50,H2110,140 nM
same,GI50,H358,4240 nM
same,GI50,SBC5,541 nM
same,GI50,BT549,250 nM
same,GI50,A2058,765 nM
same,GI50,MALME3M,19500 nM
same,GI50,LnCAP,13400 nM
same,GI50,Colo205,20500 nM
same,GI50,SKOV3,144 nM
same,EC50,"MOLP8; MOLP-8, 6 h, read-out: AZD5991 6h EC50, MOLP8 (MM), caspase 3/7 activation",57 nM
same,EC50,"MOLP8; MOLP-8, MOLP-8 cells, 0% serum, read-out: caspase-inducing activity EC50",1 nM
same,EC50,"MOLP8; MOLP-8, MOLP-8 cells, 2% serum, read-out: caspase-inducing activity EC50",8 nM
same,EC50,"MOLP8; MOLP-8, caspase activation, Mcl-1-dependent cell line, read-out: MOLP-8, EC50",33 nM
same,EC50,"MOLP8; MOLP-8, mean of log transformed data, read-out: MOLP-8 caspase pEC50 (converted)",33.1 nM
same,EC50,"OCIAML5; read-out: 6h caspase EC50, OCIAML5, single agent",> 333 nM
same,EC50,"OCIAML5; read-out: AZD5991 6h EC50, OCIAML5 (AML), caspase 3/7 activation",> 30000 nM
same,apoptosis-inducing activity,[1],blocked
same,apoptosis-inducing activity,[2],blocked
same,induced cell death,[3],resistance
